{"source": "patent US20010023252A1", "about": "“Novel compound” (SmithKline Beecham Plc, priority 1998, published 2001)", "test": "Aqueous solubility of the salt (stated in words)", "type": "physicochemical", "conditions": "water, compared with the hydrochloride salt", "data": [{"substance": "paroxetine methanesulfonate", "values": [{"measurement": "aqueous solubility (in words)", "value": "highly water soluble"}, {"measurement": "aqueous solubility (in words)", "setting": "listed as methanesulfonate salt of paroxetine", "value": "significantly more soluble than the hydrochloride salt"}]}]}
